Test results from patent US20050113349A1, “2-Alpha vitamin D derivatives having substituents” (Hiroaki TAKAYAMA, priority 1999, published 2005).

Each compound was assayed against T1, Vitamin D Receptor (VDR) (Bos taurus, UniProt Q28037) (assay: Assay for binding to vitamin D receptor (VDR), displacement of [3H]-1α,25-dihydroxyvitamin D3). Details: relative value with that of 1α,25-dihydroxyvitamin D3 taken as 100; bovine thymus receptor; [3H]-1α,25-dihydroxyvitamin D3 0.1 nM; overnight at 4° C.
T1 construct: Bovine thymus 1α,25-dihydroxyvitamin D3 receptor was purchased; purchased YAMASA SHOYU KABUSHIKI KAISHA lot.110431; host or cells: bovine thymus (tissue preparation)
T1 sequence (Q28037 1-426): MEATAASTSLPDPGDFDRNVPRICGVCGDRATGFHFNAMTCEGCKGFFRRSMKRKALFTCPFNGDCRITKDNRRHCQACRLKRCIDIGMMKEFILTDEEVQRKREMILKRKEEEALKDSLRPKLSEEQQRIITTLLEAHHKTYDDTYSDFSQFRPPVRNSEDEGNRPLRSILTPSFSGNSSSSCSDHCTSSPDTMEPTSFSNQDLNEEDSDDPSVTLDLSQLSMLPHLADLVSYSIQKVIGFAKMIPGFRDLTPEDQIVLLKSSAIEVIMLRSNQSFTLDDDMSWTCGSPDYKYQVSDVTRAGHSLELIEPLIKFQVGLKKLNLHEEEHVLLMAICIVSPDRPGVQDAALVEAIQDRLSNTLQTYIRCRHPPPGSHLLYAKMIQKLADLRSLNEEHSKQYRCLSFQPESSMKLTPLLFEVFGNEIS
Method: Assay for Binding to Vitamin D Receptor (VDR)
Bovine thymus 1α,25-dihydroxyvitamin D3 receptor was purchased from YAMASA SHOYU KABUSHIKI KAISHA (lot.110431) and 1 ampule (approximately 25 mg) of the receptor was dissolved in 55 mL of 0.05 M phosphate 0.5M potassium buffer (pH 7.4) just before use. Ethanol solutions (50 μl) of 1α,25-dihydroxyvitamin D3 and Compounds 31-35 of the present invention at various concentrations were prepared, mixed with aliquots (500 μl, 0.23 mg protein) of the receptor solution and pre-incubated at room temperature for 1 hour. To the resultant mixtures, [^3H]-1α,25-dihydroxyvitamin D3 was added at the final concentration of 0.1 nM, followed by incubation overnight at 4° C.
The reaction mixtures were treated with dextran coated charcoal for 30 minutes at 4° C. to separate the bound and free forms of [^3H]-1α,25-dihydroxyvitamin D3, and centrifuged at 3000 rpm for ten minutes. Each of the resultant supernatants (500 μl) was mixed with ACS-II (9.5 ml) (AMERSHAM, England) for radioactivity measurement.
The binding properties of Compounds 31-35 of the present invention were expressed in relative values with that of 1α,25-dihydroxyvitamin D3 taken as 100.

Compound | Binding property
C=C1C(=CC=C2CCCC3(C)C2CCC3C(C)CCCC(C)(C)O)CC(O)C(CCO)C1O [Compound 32, (5Z,7E)-(1S,2S,3R,20R)-9,10-seco-5,7,10(19)-cholestatriene-2-(2′-hydroxyethyl)-1,3,25-triol] | 70
C=C1/C(=C\C=C2/CCC[C@]3(C)[C@@H]([C@H](C)CCCC(C)(C)O)CC[C@@H]23)C[C@@H](O)[C@H](CC)[C@@H]1O [Compound 34, (5Z,7E)-(1S,2S,3R,20R)-9,10-seco-5,7,10(19)-cholestatriene-2-ethyl-1,3,25-triol] | 40
C=C1C(=CC=C2CCCC3(C)C2CCC3C(C)CCCC(C)(C)O)CC(O)C(CCC)C1O [Compound 35, (5Z,7E)-(1S,2S,3R,20R)-9,10-seco-5,7,10(19)-cholestatriene-2-propyl-1,3,25-triol] | 20
(5Z,7E)-(1S,2S,3R,20R)-9,10-seco-5,7,10(19)-cholestatriene-2-(3′-hydroxypropyl)-1,3,25-triol [Compound 33] | 300
(5Z,7E)-(1S,2S,3R,20R)-9,10-seco-5,7,10(19)-cholestatriene-2-hydroxymethyl-1,3,25-triol [Compound 31] | 20
